Experimental findings from ChEMBL document CHEMBL3991601, “The target landscape of clinical kinase drugs” (Science, 2017) are described below.

For experiment [1], the target named is T1, Serine/threonine-protein kinase TAO3 (Homo sapiens, UniProt Q9H2K8).
T1 sequence (Q9H2K8 whole entry): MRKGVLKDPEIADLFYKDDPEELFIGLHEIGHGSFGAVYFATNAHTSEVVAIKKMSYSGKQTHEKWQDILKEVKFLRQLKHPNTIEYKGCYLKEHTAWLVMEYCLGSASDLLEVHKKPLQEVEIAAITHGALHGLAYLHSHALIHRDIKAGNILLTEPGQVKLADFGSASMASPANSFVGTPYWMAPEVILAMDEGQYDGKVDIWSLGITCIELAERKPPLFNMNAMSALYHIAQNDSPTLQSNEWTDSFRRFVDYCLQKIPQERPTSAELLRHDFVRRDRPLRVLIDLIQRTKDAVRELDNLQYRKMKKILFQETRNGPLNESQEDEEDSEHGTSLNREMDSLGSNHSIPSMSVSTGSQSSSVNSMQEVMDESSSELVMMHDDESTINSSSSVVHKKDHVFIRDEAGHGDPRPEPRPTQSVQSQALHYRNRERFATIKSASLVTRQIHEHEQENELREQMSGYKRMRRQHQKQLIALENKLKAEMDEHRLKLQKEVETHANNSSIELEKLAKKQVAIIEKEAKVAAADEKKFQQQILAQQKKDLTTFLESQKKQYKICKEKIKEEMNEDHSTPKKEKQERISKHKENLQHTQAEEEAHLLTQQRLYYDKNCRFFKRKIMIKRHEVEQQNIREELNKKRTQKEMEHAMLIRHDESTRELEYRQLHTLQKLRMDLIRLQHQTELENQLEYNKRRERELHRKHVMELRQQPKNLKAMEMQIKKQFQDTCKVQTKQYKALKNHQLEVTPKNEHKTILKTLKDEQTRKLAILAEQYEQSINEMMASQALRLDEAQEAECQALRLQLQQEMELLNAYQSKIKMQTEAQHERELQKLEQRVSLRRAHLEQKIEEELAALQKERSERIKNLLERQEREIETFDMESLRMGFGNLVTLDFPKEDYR

Experiment [2] addresses Cyclin-dependent kinase 5 (Homo sapiens, UniProt Q00535).
Experiment [3] concerns the target Maternal embryonic leucine zipper kinase (Homo sapiens, UniProt Q14680).
Experiment [4] deals with Serine/threonine-protein kinase PAK 4 (Homo sapiens, UniProt O96013).
Sequence of Serine/threonine-protein kinase PAK 4 (O96013 whole entry): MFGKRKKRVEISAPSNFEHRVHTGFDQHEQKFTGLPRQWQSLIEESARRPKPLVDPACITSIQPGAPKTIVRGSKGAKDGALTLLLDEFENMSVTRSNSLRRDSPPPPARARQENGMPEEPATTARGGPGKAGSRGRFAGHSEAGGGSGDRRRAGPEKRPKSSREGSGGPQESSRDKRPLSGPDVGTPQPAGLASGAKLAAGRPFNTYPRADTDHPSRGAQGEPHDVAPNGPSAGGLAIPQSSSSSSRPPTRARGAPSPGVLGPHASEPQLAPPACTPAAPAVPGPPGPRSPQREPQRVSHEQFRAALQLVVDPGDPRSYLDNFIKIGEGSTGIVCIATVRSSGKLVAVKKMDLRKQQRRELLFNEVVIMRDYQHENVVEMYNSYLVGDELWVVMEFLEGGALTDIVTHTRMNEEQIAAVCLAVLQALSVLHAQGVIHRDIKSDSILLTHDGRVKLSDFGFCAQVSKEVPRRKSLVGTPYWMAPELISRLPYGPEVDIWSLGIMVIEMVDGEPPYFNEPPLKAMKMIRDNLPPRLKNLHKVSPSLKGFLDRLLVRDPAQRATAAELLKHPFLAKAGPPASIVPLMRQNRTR
The target of experiment [5] is T2, Serine/threonine-protein kinase STK11 (Homo sapiens, UniProt Q15831).
T2 sequence (Q15831 whole entry): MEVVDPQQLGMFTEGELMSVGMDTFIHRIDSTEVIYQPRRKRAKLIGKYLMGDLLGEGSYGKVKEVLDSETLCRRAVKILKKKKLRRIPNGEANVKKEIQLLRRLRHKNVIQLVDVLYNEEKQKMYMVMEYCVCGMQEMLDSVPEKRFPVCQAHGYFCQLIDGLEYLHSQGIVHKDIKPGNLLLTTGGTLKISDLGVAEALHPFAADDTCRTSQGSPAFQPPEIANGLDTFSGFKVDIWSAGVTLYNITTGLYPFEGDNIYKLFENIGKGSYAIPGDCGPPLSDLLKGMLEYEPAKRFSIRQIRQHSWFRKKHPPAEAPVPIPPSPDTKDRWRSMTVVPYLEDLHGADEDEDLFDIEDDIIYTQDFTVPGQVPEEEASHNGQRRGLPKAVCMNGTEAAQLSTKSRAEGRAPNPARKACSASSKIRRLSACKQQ

For experiment [6], the target named is Dual specificity tyrosine-phosphorylation-regulated kinase 1A (Homo sapiens, UniProt Q13627).
Experiment [7] deals with Activin receptor type-2B (Homo sapiens, UniProt Q13705).
Sequence of Activin receptor type-2B (Q13705 whole entry): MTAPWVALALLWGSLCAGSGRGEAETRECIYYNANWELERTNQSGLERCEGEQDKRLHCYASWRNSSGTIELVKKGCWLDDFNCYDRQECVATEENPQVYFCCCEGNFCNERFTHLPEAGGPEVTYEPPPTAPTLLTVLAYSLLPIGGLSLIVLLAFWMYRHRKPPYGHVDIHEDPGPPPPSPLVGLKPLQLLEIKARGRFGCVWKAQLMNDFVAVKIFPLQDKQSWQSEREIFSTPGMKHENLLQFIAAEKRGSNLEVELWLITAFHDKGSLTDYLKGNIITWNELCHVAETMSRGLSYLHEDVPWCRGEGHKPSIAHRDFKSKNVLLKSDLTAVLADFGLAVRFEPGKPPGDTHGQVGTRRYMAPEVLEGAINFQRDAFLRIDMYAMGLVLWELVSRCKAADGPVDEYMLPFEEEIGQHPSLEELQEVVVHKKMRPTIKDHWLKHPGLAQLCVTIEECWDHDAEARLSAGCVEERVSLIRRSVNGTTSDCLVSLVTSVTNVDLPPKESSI
Experiment [8] has as its target Chromodomain-helicase-DNA-binding protein 4 (Homo sapiens, UniProt Q14839).
The target in experiment [9] is Interleukin-1 receptor-associated kinase 1 (Homo sapiens, UniProt P51617).
Sequence of Interleukin-1 receptor-associated kinase 1 (P51617 whole entry): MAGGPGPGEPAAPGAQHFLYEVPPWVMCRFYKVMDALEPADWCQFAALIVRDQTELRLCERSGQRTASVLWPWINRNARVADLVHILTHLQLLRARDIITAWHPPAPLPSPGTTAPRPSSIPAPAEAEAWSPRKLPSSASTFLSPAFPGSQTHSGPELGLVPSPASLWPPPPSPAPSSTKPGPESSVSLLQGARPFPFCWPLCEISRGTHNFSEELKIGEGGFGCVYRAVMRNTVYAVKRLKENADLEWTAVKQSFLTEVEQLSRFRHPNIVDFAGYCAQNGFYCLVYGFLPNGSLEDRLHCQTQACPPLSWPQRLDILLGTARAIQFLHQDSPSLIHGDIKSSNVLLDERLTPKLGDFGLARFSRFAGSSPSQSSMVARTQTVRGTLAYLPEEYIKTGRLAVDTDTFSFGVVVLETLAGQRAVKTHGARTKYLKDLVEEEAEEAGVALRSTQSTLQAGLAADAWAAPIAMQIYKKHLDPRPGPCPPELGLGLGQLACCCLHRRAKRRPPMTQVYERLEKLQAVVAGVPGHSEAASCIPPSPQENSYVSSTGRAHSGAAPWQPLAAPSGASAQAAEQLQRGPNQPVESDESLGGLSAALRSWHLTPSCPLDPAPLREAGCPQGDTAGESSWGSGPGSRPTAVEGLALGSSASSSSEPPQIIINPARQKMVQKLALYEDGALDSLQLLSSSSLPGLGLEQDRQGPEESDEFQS
In experiment [10] the target is T3, Tyrosine-protein kinase Tec (Homo sapiens, UniProt P42680).
T3 sequence (P42680 whole entry): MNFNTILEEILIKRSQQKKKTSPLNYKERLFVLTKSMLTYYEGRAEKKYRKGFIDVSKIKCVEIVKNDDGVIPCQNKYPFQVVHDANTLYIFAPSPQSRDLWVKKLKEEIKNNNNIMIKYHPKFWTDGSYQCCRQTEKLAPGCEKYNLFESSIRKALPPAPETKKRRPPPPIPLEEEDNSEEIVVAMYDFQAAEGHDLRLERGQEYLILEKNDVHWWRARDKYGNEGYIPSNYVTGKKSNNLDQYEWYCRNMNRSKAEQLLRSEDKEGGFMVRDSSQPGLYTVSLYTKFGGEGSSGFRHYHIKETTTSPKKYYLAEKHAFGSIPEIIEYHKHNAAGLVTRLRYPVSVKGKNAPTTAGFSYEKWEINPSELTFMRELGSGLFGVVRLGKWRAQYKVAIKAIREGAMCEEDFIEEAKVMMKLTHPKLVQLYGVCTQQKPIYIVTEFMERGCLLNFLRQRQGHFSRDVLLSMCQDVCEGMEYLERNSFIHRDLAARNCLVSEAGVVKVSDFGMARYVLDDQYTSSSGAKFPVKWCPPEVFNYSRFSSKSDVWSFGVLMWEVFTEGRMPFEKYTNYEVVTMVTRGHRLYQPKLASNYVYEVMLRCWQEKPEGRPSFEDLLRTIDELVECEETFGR

Experiment [11] has as its target Mitogen-activated protein kinase 8 (Homo sapiens, UniProt P45983).
Experiment [12] deals with Serine/threonine-protein kinase N2 (Homo sapiens, UniProt Q16513).
Sequence of Serine/threonine-protein kinase N2 (Q16513 whole entry): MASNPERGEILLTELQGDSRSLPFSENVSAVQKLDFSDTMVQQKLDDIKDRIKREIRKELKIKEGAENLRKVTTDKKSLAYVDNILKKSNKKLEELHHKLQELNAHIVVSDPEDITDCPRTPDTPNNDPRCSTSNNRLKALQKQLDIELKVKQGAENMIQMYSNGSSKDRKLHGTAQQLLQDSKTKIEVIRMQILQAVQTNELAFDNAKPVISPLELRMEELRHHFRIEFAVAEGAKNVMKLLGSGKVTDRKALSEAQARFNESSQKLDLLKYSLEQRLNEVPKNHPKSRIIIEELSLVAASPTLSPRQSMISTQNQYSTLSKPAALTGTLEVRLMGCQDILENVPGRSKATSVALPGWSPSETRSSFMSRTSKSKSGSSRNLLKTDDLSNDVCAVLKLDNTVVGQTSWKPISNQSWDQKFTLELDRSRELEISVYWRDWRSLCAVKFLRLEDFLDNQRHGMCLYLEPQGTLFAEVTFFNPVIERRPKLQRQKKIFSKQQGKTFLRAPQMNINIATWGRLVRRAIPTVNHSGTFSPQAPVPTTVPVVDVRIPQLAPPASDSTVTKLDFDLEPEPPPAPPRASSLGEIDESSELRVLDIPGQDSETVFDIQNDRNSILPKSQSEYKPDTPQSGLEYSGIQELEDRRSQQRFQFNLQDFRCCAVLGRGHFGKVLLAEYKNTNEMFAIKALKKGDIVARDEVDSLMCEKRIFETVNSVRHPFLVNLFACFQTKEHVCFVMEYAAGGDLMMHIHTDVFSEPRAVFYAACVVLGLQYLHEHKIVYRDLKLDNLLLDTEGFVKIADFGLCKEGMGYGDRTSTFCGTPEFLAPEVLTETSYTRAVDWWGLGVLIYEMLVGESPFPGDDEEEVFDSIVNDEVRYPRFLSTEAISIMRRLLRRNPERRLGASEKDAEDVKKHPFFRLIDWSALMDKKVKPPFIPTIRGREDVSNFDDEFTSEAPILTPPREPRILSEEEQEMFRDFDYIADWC
Experiment [13] addresses T4, Ribosyldihydronicotinamide dehydrogenase [quinone] (Homo sapiens, UniProt P16083).
T4 sequence (P16083 whole entry): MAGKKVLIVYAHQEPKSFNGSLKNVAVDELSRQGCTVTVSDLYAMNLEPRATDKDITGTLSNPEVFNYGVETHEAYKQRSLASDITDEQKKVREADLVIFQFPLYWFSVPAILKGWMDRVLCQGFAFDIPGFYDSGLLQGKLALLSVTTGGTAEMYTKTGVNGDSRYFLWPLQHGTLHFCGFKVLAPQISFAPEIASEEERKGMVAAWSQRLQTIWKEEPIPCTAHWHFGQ

The source made the active and inactive calls. Rule as the data show it, for most assays here: actives have a measured Kd and inactives only a lower limit. Some results are limits rather than exact numbers.
Also: in the data inactive means no Kd found up to 30 µM.

Sequence of Mitogen-activated protein kinase 8 (P45983 whole entry): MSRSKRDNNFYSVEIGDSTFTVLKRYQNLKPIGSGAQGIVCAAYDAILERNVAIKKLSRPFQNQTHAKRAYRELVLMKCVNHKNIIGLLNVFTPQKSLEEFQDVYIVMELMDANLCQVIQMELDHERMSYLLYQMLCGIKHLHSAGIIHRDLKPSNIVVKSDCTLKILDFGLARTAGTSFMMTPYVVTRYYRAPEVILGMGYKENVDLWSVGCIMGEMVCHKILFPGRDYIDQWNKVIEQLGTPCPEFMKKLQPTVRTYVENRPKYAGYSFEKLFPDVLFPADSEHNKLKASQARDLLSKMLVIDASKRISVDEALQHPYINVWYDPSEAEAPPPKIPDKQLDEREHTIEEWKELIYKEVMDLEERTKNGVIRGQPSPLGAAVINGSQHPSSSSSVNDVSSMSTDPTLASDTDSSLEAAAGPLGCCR
Sequence of Cyclin-dependent kinase 5 (Q00535 whole entry): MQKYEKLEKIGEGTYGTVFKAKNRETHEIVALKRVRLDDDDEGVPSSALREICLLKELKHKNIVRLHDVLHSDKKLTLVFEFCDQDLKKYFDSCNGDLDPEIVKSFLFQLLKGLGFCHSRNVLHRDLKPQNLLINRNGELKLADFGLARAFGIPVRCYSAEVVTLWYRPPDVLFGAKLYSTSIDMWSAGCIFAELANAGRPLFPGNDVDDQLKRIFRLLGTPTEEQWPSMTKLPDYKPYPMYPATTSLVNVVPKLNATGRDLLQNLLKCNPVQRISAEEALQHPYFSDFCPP
Sequence of Maternal embryonic leucine zipper kinase (Q14680 whole entry): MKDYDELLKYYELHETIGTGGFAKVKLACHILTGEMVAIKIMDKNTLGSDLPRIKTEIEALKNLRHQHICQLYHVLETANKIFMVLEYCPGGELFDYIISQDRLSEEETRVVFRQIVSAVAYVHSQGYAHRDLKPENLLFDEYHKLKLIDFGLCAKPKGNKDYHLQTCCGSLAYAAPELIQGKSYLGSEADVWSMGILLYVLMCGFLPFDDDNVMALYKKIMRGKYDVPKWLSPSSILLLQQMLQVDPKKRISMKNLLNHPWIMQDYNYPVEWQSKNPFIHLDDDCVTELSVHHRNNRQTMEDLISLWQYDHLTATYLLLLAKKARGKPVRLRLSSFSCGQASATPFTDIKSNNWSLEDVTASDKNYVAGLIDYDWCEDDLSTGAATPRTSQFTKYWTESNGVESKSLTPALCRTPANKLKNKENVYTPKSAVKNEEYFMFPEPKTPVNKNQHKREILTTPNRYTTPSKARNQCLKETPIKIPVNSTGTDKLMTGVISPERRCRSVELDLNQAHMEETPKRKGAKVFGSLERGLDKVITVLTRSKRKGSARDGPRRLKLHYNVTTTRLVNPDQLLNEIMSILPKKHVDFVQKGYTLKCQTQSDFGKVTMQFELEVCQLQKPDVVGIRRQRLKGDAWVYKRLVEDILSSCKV

Take `FC(F)(F)c1ccc(CNc2ccc(Cc3c[nH]c4ncc(Cl)cc34)cn2)cn1` [PEXIDARTINIB]: the Kd in [1], in experiment [2], in [3], in experiment [4], in [5] and in experiment [6] was > 30 µM (inactive) each time. Besides, the Kd in experiment [7], in [8], in [9], in experiment [10], in [11] and in experiment [12] was > 30 µM (inactive) each time. For the same compound, in experiment [13], the Kd was > 30 µM (inactive).

As to `CNC(=O)c1cc(COc2nnc(Nc3ccc(Cl)cc3)c3ccoc23)ccn1` [TELATINIB], the Kd in experiment [1], in experiment [2], in [3], in experiment [4], in [5] and in experiment [6] was > 30 µM (inactive) in each case. The Kd in [7], in [8], in experiment [9], in experiment [10], in experiment [11] and in [12] was > 30 µM (inactive) each time. Further, the Kd in [13] was > 30 µM (inactive).

Take `COc1cc2ncnc3c2cc1OCCCCCN(C)Cc1ccc(Br)cc1N3` [JNJ-26483327]: the Kd in [1], in [2], in experiment [3], in [4], in experiment [5] and in experiment [6] was > 30 µM (inactive) each time. The Kd in experiment [7], in experiment [8], in experiment [9], in [10], in experiment [11] and in experiment [12] was > 30 µM (inactive) each time. For the same compound, in experiment [13], the Kd is > 30 µM (inactive).

On to `CNC(=O)c1cccc(-c2ccc3c(N4CCOC[C@@H]4C)nc(N4CCOC[C@@H]4C)nc3n2)c1` [VISTUSERTIB], for which the Kd in experiment [1], in experiment [2], in [3], in experiment [4], in experiment [5] and in [6] was > 30 µM (inactive) each time. For the same compound, the Kd in experiment [7], in [8], in experiment [9], in experiment [10], in experiment [11] and in experiment [12] was > 30 µM (inactive) throughout. In addition, the Kd in experiment [13] was > 30 µM (inactive).

As for `O=C(Nc1ccc(OC(F)(F)F)cc1)c1sccc1NCc1ccnc2ccccc12` [OSI-930], the Kd in [1], in experiment [2], in experiment [3], in [4], in experiment [5] and in experiment [6] was > 30 µM (inactive) in each case. Besides, the Kd in experiment [7], in experiment [8], in experiment [9], in [10], in experiment [11] and in experiment [12] was > 30 µM (inactive) in each case. Also, the Kd in experiment [13] was > 30 µM (inactive).

For `Cc1cc(C(=O)Nc2cc(Oc3ccc4nc(NC(=O)C5CC5)cn4n3)ccc2C)n(C)n1` [TAK-593], the Kd in [1], in experiment [2], in experiment [3], in experiment [4], in experiment [5] and in experiment [6] was > 30 µM (inactive) each time. Further, the Kd in [7], in experiment [8], in [9], in experiment [10], in [11] and in experiment [12] was > 30 µM (inactive) in each case. Also, the Kd in experiment [13] is > 30 µM (inactive).

`O=S(=O)(c1cccc2c(O)nccc12)N1CCCNCC1` [HYDROXYFASUDIL]: the Kd in experiment [1], in experiment [2], in experiment [3], in [4], in experiment [5] and in [6] was > 30 µM (inactive) throughout. Further, the Kd was > 30 µM (inactive) in experiment [7]; > 30 µM (inactive) in experiment [8]; > 30 µM (inactive) in [9]; > 30 µM (inactive) in [10]; > 30 µM (inactive) in [11]; 2.26 µM (active) in experiment [12]. The Kd in experiment [13] is > 30 µM (inactive).

Regarding `C=CC(=O)Nc1cccc(Nc2nc(Nc3ccc(N4CCN(C(C)=O)CC4)cc3OC)ncc2C(F)(F)F)c1` [ROCILETINIB], the Kd in experiment [1], in experiment [2], in experiment [3], in experiment [4], in experiment [5] and in [6] was > 30 µM (inactive) in each case. The Kd in experiment [7] is > 30 µM (inactive); in experiment [8], > 30 µM (inactive); in experiment [9], > 30 µM (inactive); in [10], 0.288 µM (active); in experiment [11] it was > 30 µM (inactive); in [12] it was > 30 µM (inactive). In addition, the Kd in experiment [13] was > 30 µM (inactive).

Take `O=c1[nH]c([C@@H]2CCCN2)nc2c1oc1ccc(Cl)cc12`: the Kd is 2.29 µM (active) in experiment [1]; > 30 µM (inactive) in experiment [2]; > 30 µM (inactive) in experiment [3]; > 30 µM (inactive) in [4]; > 30 µM (inactive) in experiment [5]; 0.04 µM in [6]. Further, the Kd in experiment [7], in experiment [8], in experiment [9], in experiment [10], in experiment [11] and in [12] was > 30 µM (inactive) in each case. Also, the Kd in [13] is > 30 µM (inactive).
